Data set [1] has as its target Tau-FynSH3 interaction (Homo sapiens (Human), UniProt P10636). In words: Tau-FynSH3 AlphaScreen. It is filed as binding. Summed up: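 Purified GST-Fyn-SH3-Strep and His-tagged human 4R2N Tau-Strep from E. coli, tested by AlphaScreen with glutathione donor and nickel chelate acceptor beads in Bis-Tris pH 7.0, TCEP, casein, Tween-20. Compound preincubated 30 min with first protein at 600 nM, then second protein 30 min, then beads 2 h.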

In data set [2] the target is Tau-Fyn interaction (Homo sapiens (Human), UniProt P10636). As to the kind of experiment: Tau-Fyn PLA screening in HEK-293 cells. It is filed as cell-based. The conditions noted are these: for Tau-Fyn interaction in cells, Tau-Fyn PLA in HEK-293 cells: compound 15 μM, 24 hours; for PLA: Table 3, Tau-Fyn PLA. As for the experimental part: Tau-Fyn PLA screening in HEK-293 cells: For Tau-Fyn PLA in HEK-293 cells, we used the same plasmids as before (Rush, et al. (2020) Neurobiol Dis 134, 104668): human 4R2N Tau with an N-terminal mKate2 tag in a pcDNA3.1 vector and human Fyn with an N-terminal Myc tag in a pCMV-Sport6 vector grown in Stellar E. coli. HEK-293 cells were plated on coverslips coated with PDL and laminin in a 24-well plate in DMEM supplemented with 10% FBS and 1% PenStrep. Cells were transfected with 125 ng of Tau-mKate2 and Fyn plasmids with 1.5 μL Fugene in plain DMEM. After 24 hours, compound was applied at 15 μM. Twenty-four hours after application, cells were fixed. PLA protocol was the same as above except for different primary antibodies (Tau5 1:500, Fyn3 1:250). After image acquisition, PLA density was calculated as PLA puncta (as above) divided by cell area to account for differences in confluency. Cell area was defined with ImageJ as % Area after theresholding Tau-mKate2 fluorescence because it filled the cells evenly. Puncta/cell area was then normalized to vehicle-treated slides from that experiment.
Chain of Tau-Fyn interaction (P10636 other isoform, or with tags, fused parts or gaps): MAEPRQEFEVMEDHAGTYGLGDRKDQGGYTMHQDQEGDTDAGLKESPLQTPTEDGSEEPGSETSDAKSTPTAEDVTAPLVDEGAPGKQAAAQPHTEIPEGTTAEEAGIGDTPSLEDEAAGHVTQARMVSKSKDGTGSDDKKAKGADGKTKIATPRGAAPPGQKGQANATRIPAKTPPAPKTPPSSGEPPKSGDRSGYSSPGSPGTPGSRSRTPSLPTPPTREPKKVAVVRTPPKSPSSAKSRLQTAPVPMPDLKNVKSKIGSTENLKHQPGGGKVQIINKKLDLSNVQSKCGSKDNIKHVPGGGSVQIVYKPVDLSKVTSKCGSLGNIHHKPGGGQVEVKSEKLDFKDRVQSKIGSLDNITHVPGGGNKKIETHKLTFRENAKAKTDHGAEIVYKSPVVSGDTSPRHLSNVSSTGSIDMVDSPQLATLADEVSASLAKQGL

A short description of data set [3]: Metabolic stability in mouse liver microsomes. It is filed as in vitro ADME. The following applies: mouse, liver microsomes.
The nature of data set [4]: Oral administration to mice, brain and plasma concentrations. It is filed as in vivo. The conditions noted are these: male CD1 mice; for presence in plasma and brain after oral administration: PO 5 mg/kg, 1, 2 and 4 hours; for brain/plasma ratio: PO 5 mg/kg. As for the experimental part: Compounds were sent to Pharmaron to determine if they were blood-brain barrier permeable. Compounds were formulated to 1 mg/mL in 10% NMP, 60% PEG400, 30% saline, then male CD1 mice were treated PO at 5 mg/kg. Brain and plasma concentrations were measured using HPLC-MS at 1 hour, 2 hours, and 4 hours post-treatment.

Data set [5] is described as follows: Partition coefficient (LogD). It is filed as physicochemical. The following applies: Table 3; read-out: ADME LogD. From the text:
A computational analysis of the top five hits was then completed to assess the physical attributes of the compounds emerging from the HTS. The target profile for drug-like properties included evaluation of molecular weight (MW), total polar surface area (PSA, the surface sum of all polar atoms on the molecule), solubility, metabolic stability, and partition coefficient (LogD). In general, MW<[…] and PSA <70 Å^2 were targeted, which generally allows for blood-brain barrier (BBB) permeability. Compounds with PSA >100 A^2 are generally poor at permeating cell membranes. Solubility was targeted at >10 μM at pH 7.4 and 40-60% of compound remaining after 60 minutes of incubation in mouse or human liver microsomes (an indicator of compound stability after first-pass metabolism). LogD is the log of the ratio of concentrations of a compound in two immiscible solvents at equilibrium. Values ranging from 2-4 were targeted, typical for CNS drugs. Based on these criteria, compound no. 55 was selected as the top hit for optimization. Compound no.

Data set [6] can be described thus: Solubility. The format is physicochemical. The following applies: for ADME Sol (μM): Table 3.
Setting [7] is: Table 2, Tau-FynSH3 inhibitory activity in the AlphaScreen, read-out: IC50.
[8] abbreviates: Table 3, read-out: ADME t1/2 (min): MLMt1/2.
Setting [9] is: Table 3, read-out: Alpha screen IC50.

≈ marks a conversion by molar mass, not a printed value. Read-outs that look alike come from different tables or passages of the source.

Chain of Tau-FynSH3 interaction (P10636 other isoform, or with tags, fused parts or gaps): as above

In the case of `O=C(CCN1C(=O)CSc2ccccc21)Nc1nnc(-c2ccccn2)[nH]1` [compound no. 55], the IC50 in data set [1] (setting [7]) was 5 µM. The “Tau-Fyn interaction in cells, Tau-Fyn PLA in HEK-293 cells” value (“Tau-Fyn interaction in cells” for short) in data set [2] is recorded as “reduced Tau-Fyn interaction in cells”.

On to `O=C(CN1C(=O)CSc2cc(F)ccc21)Nc1nnc(-c2ccccn2)[nH]1` [compound no. 12, 2-(7-FLUORO-3-oxo-2H-BENZO[B][1,4]THIAZIN-4(3H)-YL)-N-(5-(PYRIDIN-2-YL)-4H-1,2,4-TRIAZOL-3-YL)ACETAMIDE], for which the half-life in data set [3] (Table 2, read-out: MLM t1/2) worked out at 146 min; in data set [3] (setting [8]), 146 min. Also, the “presence in plasma and brain after oral administration” value (“presence in plasma and brain” for short) in data set [4] was “detected in plasma, it did not cross the BBB and was not present in brain”. For the same compound, the logD in data set [5] amounted to 2.4. In data set [6], the “ADME Sol (μM)” value is recorded as “Sol = 41 μM”. In data set [1], the “AlphaScreen activity (in words)” value is reported as “submicromolar IC50”. Further, the IC50 in data set [1] (setting [7]) is 0.99 µM. In addition, the PLA result in data set [2] was “Active”. Moreover, in data set [2], the “Tau-Fyn interaction in cells” value is “reduced Tau-Fyn interaction in cells”.

Consider `O=C(CN1C(=O)CSc2cc(F)c(F)cc21)Nc1nnc(-c2ccccn2)[nH]1` [compound no. 14, 2-(6,7-DIFLUORO-3-OXO-2H-BENZO[B][1,4]THIAZIN-4(3H)-YL)-N-(5-(PYRIDIN-2-YL)-4H-1,2,4-TRIAZOL-3-YL)ACETAMIDE], for which the logD in data set [5] was 1.9. The IC50 in data set [1] (setting [9]) worked out at 0.9 µM. In data set [2], the PLA entry is reported as “Inactive” and the “Tau-Fyn interaction in cells” value is recorded as “did not reduce Tau-Fyn interaction in cells”.

Turning to `Cc1ccc2c(c1)SCC(=O)N2CC(=O)Nc1nnc(-c2ccccn2)[nH]1` [compound no. 23, 2-(7-METHYL-3-OXO-2H-BENZO[B][1,4]THIAZIN-4(3H)-YL)-N-(5-(PYRIDIN-2-YL)-4H-1,2,4-TRIAZOL-3-YL)ACETAMIDE], the logD in data set [5] turned out to be 2.2. Also, the “ADME Sol (μM)” value in data set [6] is on record as “Sol = 57 μM”. Moreover, the IC50 in data set [1] (setting [7]) was 0.79 µM. Besides, in data set [2], the PLA entry is on record as “Active” and the “Tau-Fyn interaction in cells” value is listed as “reduced Tau-Fyn interaction in cells”.

For `O=C(CN1CCOc2ccccc21)Nc1nnc(-c2ccccn2)[nH]1` [compound no. 69], in data set [4], the brain/plasma ratio is listed as 0.067; the “presence in plasma and brain” value was “presence in both plasma and brain”. In addition, in data set [1], the “AlphaScreen activity (in words)” value was “submicromolar activity”. In data set [2], the “Tau-Fyn interaction in cells” value is “reduced Tau-Fyn interaction in cells”.

Turning to `O=C(CN1CCOc2ccccc21)Nc1nnc(-c2ccccn2)[nH]1` [compound 47, 2-(2,3-DIHYDRO-4H-BENZO[B][1,4]OXAZIN-4-YL)-N-(5-(PYRIDIN-2-YL)-4H-1,2,4-TRIAZOL-3-YL)ACETAMIDE], the half-life in data set [3] (Table 2, read-out: MLM t1/2) stood at 2 min. Also, the log distribution coefficient (logD) in data set [5] is 1.8. For the same compound, in data set [6], the “ADME Sol (μM)” value is on record as “Sol = 54 μM”. Besides, the Solubility in data set [6] (pH 7.4, aqueous buffer, Table 2) came to 80.2 µM (≈ 27 µg/mL). In addition, the IC50 amounted to 0.32 µM in data set [1] (setting [7]) and 0.91 µM in data set [1] (setting [9]). The PLA result in data set [2] is given as “Active”.

For the compound `O=C(CN1CCCc2ccccc21)Nc1nnc(-c2ccccn2)[nH]1` [compound no. 45, 2-(3,4-DIHYDROQUINOLIN-1(2H)-YL)-N-(5-(PYRIDIN-2-YL)-4H-1,2,4-TRIAZOL-3-YL)ACETAMIDE], the logD in data set [5] is 2.3. Further, the half-maximal inhibitory concentration (IC50) in data set [1] (setting [7]) came out at 1.25 µM. Further, in data set [2], the PLA entry is reported as “Active” and the “Tau-Fyn interaction in cells” value is “reduced Tau-Fyn interaction in cells”.

As for `O=C(CN1C(=O)CSc2cc(Cl)ccc21)Nc1nnc(-c2ccccn2)[nH]1` [compound no. 13, 2-(7-CHLORO-3-OXO-2H-BENZO[B][1,4]THIAZIN-4(3H)-YL)-N-(5-(PYRIDIN-2-YL)-4H-1,2,4-TRIAZOL-3-YL)ACETAMIDE], in data set [5], the logD amounted to 3.1. Also, the IC50 in data set [1] (setting [9]) came to 0.93 µM. Besides, in data set [2], the PLA entry was “Active” and the “Tau-Fyn interaction in cells” value is “reduced Tau-Fyn interaction in cells”.

`O=C(CN1CCSc2ccccc21)Nc1nnc(-c2ccccn2)[nH]1` [compound no. 20, 2-(2H-BENZO[B][1,4]THIAZIN-4(3H)-YL)-N-(5-(PYRIDIN-2-YL)-4H-1,2,4-TRIAZOL-3-YL)ACETAMIDE]: in data set [3] (setting [8]), the half-life was 9 min. Also, in data set [4], the brain/plasma ratio came out at 0.06. In addition, the “presence in plasma and brain” value in data set [4] is “detected in both plasma and brain”. The logD in data set [5] was found to be 2.3. Also, the “ADME Sol (μM)” value in data set [6] is reported as “Sol = 14 μM”. Also, the IC50 in data set [1] (setting [7]) worked out at 0.55 µM; in data set [1] (setting [9]) it was 0.552 µM; in data set [1] (unit printed as 'M', Table 2 gives 0.55 μM, read-out: IC50, inhibition in the AlphaScreen), 0.55 µM.

The values are drawn from patent US20250367209A1 (SOUTHERN RESEARCH INSTITUTE, priority 2022, published 2025).
